Measurements reported in PubChem BioAssay (NCI).
Values joined by “and” are separate entries in the source; they are usually repeats but may differ in a detail not shown here. Identical values can stand only once.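 Following 48 hours of exposure in 96-well plates, responses at five concentrations were used to interpolate endpoints linearly. GI50: concentration for 50% inhibition of growth. Definition used: TGI = concentration required for complete inhibition of growth.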

Legend:
Assay in all cases: inhibition of tumour cell growth, NCI panel, 48 h
[1] = system: HCT-116 colon
[2] = system: EKVX NSCLC
[3] = system: RPMI-8226 leukemia
[4] = system: HOP-92 NSCLC
[5] = system: A549 NSCLC
[6] = system: K-562 leukemia
[7] = system: SN12C renal
[8] = system: SNB-19 CNS
[9] = system: BT-549 breast
[10] = system: NCI-H460 lung
[11] = system: LOX IMVI melanoma
[12] = system: NCI-H226 lung
[13] = system: HCT-15 colon
[14] = system: SK-MEL-28 melanoma
[15] = system: UACC-62 melanoma
[16] = system: HOP-62 NSCLC
[17] = system: UACC-257 melanoma
[18] = system: NCI-H522 lung
[19] = system: TK-10 renal
[20] = system: SR leukemia
[21] = system: MALME-3M melanoma
[22] = system: A498 renal
[23] = system: HCC-2998 colon
[24] = system: OVCAR-5 ovarian
[25] = system: UO-31 renal
[26] = system: IGROV1 ovarian
[27] = system: HS 578T breast
[28] = system: SK-MEL-2 melanoma
[29] = system: T-47D breast
[30] = system: SF-268 CNS
[31] = system: OVCAR-4 ovarian
[32] = system: PC-3 prostate
[33] = system: COLO 205 colon
[34] = system: SK-MEL-5 melanoma
[35] = system: MDA-MB-435
[36] = system: CCRF-CEM leukemia
[37] = system: MOLT-4 leukemia
[38] = system: KM12 colon
[39] = system: OVCAR-3 ovarian
[40] = system: DU-145 prostate
[41] = system: OVCAR-8 ovarian
[42] = system: HT29 colon
[43] = system: SF-295 CNS
[44] = system: MDA-MB-231 breast
[45] = system: HL-60(TB) leukemia
[46] = system: 786-0 renal
[47] = system: M14 melanoma
[48] = system: SK-OV-3 ovarian
[49] = system: SF-539 CNS
[50] = system: U251 CNS
[51] = system: ACHN renal
[52] = system: NCI/ADR-RES ovarian
[53] = system: MCF7 breast
[54] = system: CAKI-1 renal
[55] = system: NCI-H23 lung
[56] = system: SNB-75 CNS
[57] = system: SW-620 colon

Compound: CC(C)CCC[C@@H](C)[C@H]1CCC2C3=CCC4C(=O)C=CC(=O)C4C3CC[C@@]21C (stereo partly specified)
- GI50 [1]: 0.0551 µM
- TGI [1]: 1.03 µM
- GI50 [2]: 0.279 µM
- GI50 [3]: 0.11 µM
- GI50 [4]: 0.135 µM
- TGI [4]: 0.67 µM
- GI50 [5]: 0.0836 µM
- GI50 [6]: 0.139 µM
- TGI [6]: > 100 µM
- GI50 [7]: 0.256 µM
- TGI [7]: > 100 µM
- GI50 [8]: 0.543 µM
- TGI [8]: > 100 µM
- GI50 [9]: 0.306 µM
- TGI [9]: 1.72 µM
- GI50 [10]: 0.324 µM
- TGI [10]: 2.59 µM
- GI50 [11]: 0.227 µM
- TGI [11]: 1.17 µM
- GI50 [12]: 0.849 µM
- TGI [12]: > 100 µM
- GI50 [13]: 0.235 µM
- TGI [13]: > 100 µM
- GI50 [14]: 0.449 µM
- TGI [14]: > 100 µM
- GI50 [15]: 0.542 µM
- TGI [15]: > 100 µM
- GI50 [16]: 0.552 µM
- TGI [16]: > 100 µM
- GI50 [17]: 0.372 µM
- GI50 [18]: 0.803 µM
- TGI [18]: > 100 µM
- GI50 [19]: 2.65 µM
- TGI [19]: > 100 µM
- GI50 [20]: 0.263 µM
- TGI [20]: > 100 µM
- GI50 [21]: 0.399 µM
- TGI [21]: 2 µM
- GI50 [22]: 0.301 µM
- TGI [22]: 1.14 µM
- GI50 [23]: 0.274 µM
- TGI [23]: 0.855 µM
- GI50 [24]: 0.212 µM
- TGI [24]: > 100 µM
- GI50 [25]: 0.0721 µM
- TGI [25]: 0.359 µM
- GI50 [26]: 0.26 µM
- TGI [26]: 0.719 µM
- GI50 [27]: 0.528 µM
- TGI [27]: > 20.9 µM
- GI50 [28]: 1.14 µM
- GI50 [29]: 0.174 µM
- GI50 [30]: 0.566 µM
- TGI [30]: > 100 µM
- GI50 [31]: 0.159 µM
- TGI [31]: 0.498 µM
- GI50 [32]: 0.101 µM
- GI50 [33]: 0.0545 µM
- TGI [33]: 0.183 µM
- GI50 [34]: 0.419 µM
- TGI [34]: 2.66 µM
- GI50 [35]: 0.254 µM
- TGI [35]: 1.15 µM
- GI50 [36]: 0.179 µM
- TGI [36]: > 100 µM
- GI50 [37]: 0.373 µM
- TGI [37]: > 100 µM
- GI50 [38]: 0.338 µM
- TGI [38]: > 100 µM
- GI50 [39]: 0.348 µM
- GI50 [40]: 0.507 µM
- TGI [40]: > 100 µM
- GI50 [41]: 0.0726 µM
- GI50 [42]: 0.839 µM
- TGI [42]: > 100 µM
- GI50 [43]: 0.172 µM
- TGI [43]: 0.576 µM
- GI50 [44]: 0.331 µM
- TGI [44]: 1.32 µM
- GI50 [45]: 0.27 µM
- TGI [45]: > 100 µM

Compound: COc1ccc(-c2cc(-c3ccccc3)c(C#N)c(=O)n2C2OC(COC(C)=O)C(OC(C)=O)C(OC(C)=O)C2OC(C)=O)cc1 (stereo unspecified)
- GI50 [3]: 47.3 µM and 11.5 µM
- TGI [3]: > 100 µM
- TGI [25]: > 100 µM

Compound: CCCCCCN1CCN(Cc2ccc(N(CC)CC)cc2)C(=O)C1=O
- GI50 [46]: 4.88 µM
- TGI [46]: > 100 µM
- GI50 [1]: 3.92 µM
- TGI [1]: > 100 µM
- GI50 [3]: 3.63 µM
- TGI [3]: 19.2 µM
- GI50 [4]: 4.21 µM
- TGI [4]: 38.2 µM
- GI50 [5]: 4.29 µM
- TGI [5]: > 100 µM
- GI50 [6]: 0.832 µM
- TGI [6]: 75.4 µM
- GI50 [47]: 2.3 µM
- TGI [47]: 9.08 µM
- GI50 [7]: 5.19 µM
- TGI [7]: 93.9 µM
- GI50 [8]: 4.08 µM
- TGI [8]: > 100 µM
- GI50 [48]: 3.61 µM
- TGI [48]: > 100 µM
- GI50 [9]: 10.2 µM
- TGI [9]: 95.6 µM
- GI50 [10]: 3.35 µM
- TGI [10]: 17.3 µM
- GI50 [49]: 2.57 µM
- TGI [49]: 8.23 µM
- GI50 [11]: 7.95 µM
- TGI [11]: > 100 µM
- GI50 [12]: 5.84 µM
- TGI [12]: 27.8 µM
- GI50 [50]: 3.99 µM
- TGI [50]: 62.3 µM
- GI50 [13]: 1.07 µM
- TGI [13]: > 100 µM
- GI50 [51]: 6.45 µM
- TGI [51]: > 100 µM
- GI50 [14]: 7.17 µM
- TGI [14]: > 100 µM
- GI50 [52]: 2.72 µM
- GI50 [53]: 0.58 µM
- TGI [53]: 62.2 µM
- GI50 [54]: 7.23 µM
- TGI [54]: > 100 µM
- GI50 [15]: 3.54 µM
- TGI [15]: > 100 µM
- GI50 [16]: 4.97 µM
- TGI [16]: > 100 µM
- GI50 [55]: 4.05 µM
- TGI [55]: 62.5 µM
- GI50 [17]: 16.9 µM
- TGI [17]: > 100 µM
- GI50 [18]: 2.03 µM
- TGI [18]: 5.14 µM
- GI50 [19]: 10.3 µM
- TGI [19]: 77.5 µM
- GI50 [20]: 1.03 µM
- TGI [20]: 13.4 µM
- GI50 [21]: 4.25 µM
- TGI [21]: > 100 µM
- GI50 [22]: 0.973 µM
- TGI [22]: 5.77 µM
- GI50 [23]: 6.45 µM
- TGI [23]: 28.2 µM
- GI50 [24]: 5.41 µM
- TGI [24]: > 100 µM
- GI50 [25]: 5.22 µM
- TGI [25]: > 100 µM
- GI50 [26]: 6.63 µM
- TGI [26]: > 100 µM
- GI50 [27]: 3.14 µM
- TGI [27]: 27.7 µM
- GI50 [28]: 3.57 µM
- TGI [28]: 21.2 µM
- GI50 [29]: 5.69 µM
- TGI [29]: > 100 µM
- GI50 [30]: 6.21 µM
- TGI [30]: > 100 µM
- GI50 [31]: 6.73 µM
- TGI [31]: 79.6 µM
- GI50 [32]: 2.97 µM
- TGI [32]: 54 µM
- GI50 [33]: 0.759 µM
- TGI [33]: 10.1 µM
- GI50 [34]: 0.412 µM
- TGI [34]: 11.3 µM
- GI50 [56]: 1.95 µM
- TGI [56]: 13.1 µM
- GI50 [57]: 3.07 µM
- TGI [57]: > 100 µM
- GI50 [35]: 0.448 µM
- TGI [35]: 2.38 µM
- GI50 [36]: 2.69 µM
- TGI [36]: > 100 µM
- GI50 [37]: 3.42 µM
- TGI [37]: 32.8 µM
- GI50 [38]: 2.47 µM
- TGI [38]: 82.4 µM
- GI50 [40]: 3.38 µM
- TGI [40]: 48.7 µM
- GI50 [41]: 5.42 µM
- TGI [41]: > 100 µM
- GI50 [42]: 3.34 µM
- TGI [42]: > 100 µM
- GI50 [43]: 3.02 µM
- TGI [43]: > 100 µM
- GI50 [44]: 4.97 µM
- TGI [44]: > 100 µM
